According to US6350765B1, “Fungicidal mixtures based on amide compounds and azoles” (priority 2000, dated 2002):

The compounds below were run on Botrytis cinerea (assay: Activity against Botrytis cinerea on bell peppers (fruit disks, protective spray)). Settings: in Capsicum, 96 h, read-out: Efficacy in % of the untreated control.
Format: in vivo
Description: The active ingredients, separately or together, are formulated as a 10% emulsion in a mixture of 63% by weight of cyclohexanone and 27% by weight of emulsifier, and diluted with water to the desired concentration.
Evaluation is carried out by determining the infected leaf areas in percent. These percentages are converted into efficacies. The efficacy (W) is calculated as follows using Abbot's formula: […]
α corresponds to the fungal infection of the treated plants in % and β corresponds to the fungal infection of the untreated (control) plants in % An efficacy of 0 means that the infection level of the treated plants corresponds to that of the untreated control plants; an efficacy of 100 means that the treated plants were not infected.
The expected efficacies of the mixtures of the active ingredients were determined using Colby's formula [R. S. Colby, Weeds 15, 20-22 (1967)] and compared with the observed efficacies.
Colby's formula: E=x+y−x·y/100
E expected efficacy, expressed in % of the untreated control, when using the mixture of the active ingredients A and B at the concentrations a and b x efficacy, expressed in % of the untreated control, when using active ingredient A at the concentration a y efficacy, expressed in % of the untreated control, when using active ingredient B at the concentration b Activity against Botrytis cinerea on bell peppers
Disks of green bell peppers were sprayed to runoff point with an aqueous preparation of active ingredient which had been prepared is from a stock solution comprising 10% of active ingredient, 63% of cyclohexanone and 27% of emulsifier. 2 hours after the spray coating had dried on, the fruit disks were inoculated with a spore suspension of Botrytis cinerea containing 1.7×10^6 spores per ml of a 2% strength Biomalz solution. The inoculated fruit disks were subsequently incubated in humid chambers at 18° C. for 4 days. The Botrytis infection on the diseased fruit disks was then evaluated visually.
The visually determined values for the percentage of diseased leaf areas were converted into efficacies as percentage of the untreated control. An efficacy of 0 means the same disease level as in the untreated control, an efficacy of 100 means 0% disease. The expected efficacies for active ingredient combinations were determined using Colby's formula (Colby, S. R. “Calculating synergistic and antagonistic responses of herbicide Combinations”, Weeds, 15, p. 20-22, 1967) and compared with the observed efficacies.

SMILES	pest or weed control at 16 ppm [%]	pest or weed control at 31 ppm [%]
O=C(Nc1ccccc1-c1ccc(F)cc1)c1cccnc1Cl [Compound I.1]	10	60
O=C(Nc1ccccc1-c1ccc(Cl)cc1)c1cccnc1Cl [Compound I.2]	80	
CCCN(CCOc1c(Cl)cc(Cl)cc1Cl)C(=O)n1ccnc1 [Compound II.11, N-propyl-N-[2-(2,4,^6-trichlorophenoxy)ethyl]imidazol-1-carboxamide]	0	0

Same assay, conditions: in Capsicum, 96 h, single active ingredient, 16 ppm in the spray liquor, green bell pepper disks, 4 days at 18° C., read-out: Efficacy in % of the untreated control

SMILES	pest or weed control at 16 ppm [%]
CCCC1COC(Cn2cncn2)(c2ccc(Cl)cc2Cl)O1 (racemic) [Compound II.12, (±)-1-[2-(2,4-dichlorophenyl)-4-propyl-1,3-dioxolan-2-ylmethyl]-1H-1,2,4-triazole]	0
CC(C1CC1)C(O)(Cn1cncn1)c1ccc(Cl)cc1 (stereo not shown) [Compound II.2, 2-(4-chlorophenyl)-3-cyclopropyl-1-(1H-1,2,4-triazol-1-yl)-butan-2-ol]	0
Fc1ccc(C2(Cn3cncn3)OC2c2ccccc2Cl)cc1 (stereo not shown) [Compound II.5, (Z)-2-(1H-1,2,4-triazol-1-ylmethyl)-2-(4-fluorophenyl)-3-(2-chlorophenyl)-oxirane]	0
C[Si](Cn1cncn1)(c1ccc(F)cc1)c1ccc(F)cc1 [Compound II.8, bis(4-fluorophenyl)(methyl)(1H-1,2,4-triazol-1-ylmethyl)-silane]	0
CCCCC(C#N)(Cn1cncn1)c1ccc(Cl)cc1 (stereo not shown) [Compound II.17, 2-p-chlorophenyl-2-(1H-1,2,4-triazol-1-ylmethyl)hexanenitrile]	0

Same assay, conditions: in Capsicum, 96 h, single active ingredient, 31 ppm in the spray liquor, green bell pepper disks, 4 days at 18° C., read-out: Efficacy in % of the untreated control

SMILES	pest or weed control at 31 ppm [%]
CC(C1CC1)C(O)(Cn1cncn1)c1ccc(Cl)cc1 (stereo not shown) [Compound II.2, 2-(4-chlorophenyl)-3-cyclopropyl-1-(1H-1,2,4-triazol-1-yl)-butan-2-ol]	10
Fc1ccc(C2(Cn3cncn3)OC2c2ccccc2Cl)cc1 (stereo not shown) [Compound II.5, (Z)-2-(1H-1,2,4-triazol-1-ylmethyl)-2-(4-fluorophenyl)-3-(2-chlorophenyl)-oxirane]	0
C[Si](Cn1cncn1)(c1ccc(F)cc1)c1ccc(F)cc1 [Compound II.8, bis(4-fluorophenyl)(methyl)(1H-1,2,4-triazol-1-ylmethyl)-silane]	0
